Three molecules from ChEMBL document CHEMBL5370693, “Kinases Controlling Stability of the Oncogenic MYCN Protein” (ACS Med Chem Lett, 2023) can be followed below.

Assay [1] concerns the target Casein kinase II subunit alpha' (Homo sapiens) (UniProt P19784). Description: Inhibition of CSNK2A2 (unknown origin) assessed as remaining activity at 15 uM incubated for 1 hr by KINOMEscan competitive binding assay relative to control.
The target in assay [2] is T1, Phosphatidylinositol 3-kinase C2 domain-containing subunit gamma (Homo sapiens) (UniProt O75747).
T1 sequence (whole entry): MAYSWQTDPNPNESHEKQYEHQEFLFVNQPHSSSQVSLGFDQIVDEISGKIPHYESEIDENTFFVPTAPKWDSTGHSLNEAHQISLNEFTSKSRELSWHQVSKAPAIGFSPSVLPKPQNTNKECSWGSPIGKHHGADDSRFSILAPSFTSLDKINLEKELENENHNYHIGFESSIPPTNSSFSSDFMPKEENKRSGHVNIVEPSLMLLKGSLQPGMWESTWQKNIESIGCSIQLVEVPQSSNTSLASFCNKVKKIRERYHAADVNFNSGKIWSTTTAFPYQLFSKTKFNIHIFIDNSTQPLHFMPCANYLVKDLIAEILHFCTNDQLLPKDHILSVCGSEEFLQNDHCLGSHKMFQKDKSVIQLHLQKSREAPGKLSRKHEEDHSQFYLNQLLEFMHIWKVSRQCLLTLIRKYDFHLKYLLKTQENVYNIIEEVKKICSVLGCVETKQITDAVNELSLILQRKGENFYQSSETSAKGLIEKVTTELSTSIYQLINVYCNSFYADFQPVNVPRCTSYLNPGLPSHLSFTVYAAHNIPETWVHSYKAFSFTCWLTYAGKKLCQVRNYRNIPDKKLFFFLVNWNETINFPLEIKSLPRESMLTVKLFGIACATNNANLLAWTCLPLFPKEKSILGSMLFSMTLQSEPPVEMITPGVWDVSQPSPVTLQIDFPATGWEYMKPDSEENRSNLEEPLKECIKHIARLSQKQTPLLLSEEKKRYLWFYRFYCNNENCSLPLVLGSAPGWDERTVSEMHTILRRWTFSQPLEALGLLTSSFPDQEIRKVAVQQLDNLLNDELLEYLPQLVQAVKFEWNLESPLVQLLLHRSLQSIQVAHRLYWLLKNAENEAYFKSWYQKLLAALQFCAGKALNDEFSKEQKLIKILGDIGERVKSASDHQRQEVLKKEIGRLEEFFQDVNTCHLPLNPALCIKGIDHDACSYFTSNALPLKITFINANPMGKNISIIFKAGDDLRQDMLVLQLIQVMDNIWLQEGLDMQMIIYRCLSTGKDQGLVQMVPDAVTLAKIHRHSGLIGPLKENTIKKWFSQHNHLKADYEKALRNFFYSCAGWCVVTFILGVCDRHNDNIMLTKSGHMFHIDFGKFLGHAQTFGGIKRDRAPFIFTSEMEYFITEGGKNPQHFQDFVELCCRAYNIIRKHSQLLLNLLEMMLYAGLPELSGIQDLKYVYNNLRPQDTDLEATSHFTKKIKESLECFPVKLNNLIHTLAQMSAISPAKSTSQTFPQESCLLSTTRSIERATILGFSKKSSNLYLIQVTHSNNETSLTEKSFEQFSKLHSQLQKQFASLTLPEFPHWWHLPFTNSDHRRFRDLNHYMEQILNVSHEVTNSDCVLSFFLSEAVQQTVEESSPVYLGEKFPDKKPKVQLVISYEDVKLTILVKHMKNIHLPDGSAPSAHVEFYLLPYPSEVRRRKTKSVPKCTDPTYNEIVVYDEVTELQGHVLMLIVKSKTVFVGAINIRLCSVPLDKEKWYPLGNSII
Briefly: Inhibition of PIK3C2G (unknown origin) assessed as remaining activity at 15 uM incubated for 1 hr by KINOMEscan competitive binding assay relative to control.

The test system of assay [3] is Phosphatidylinositol 4,5-bisphosphate 3-kinase catalytic subunit alpha isoform (Homo sapiens), P42336 [E542K]. Briefly: Inhibition of PIK3CA E542K mutant (unknown origin) assessed as remaining activity at 15 uM incubated for 1 hr by KINOMEscan competitive binding assay relative to control.
In assay [4] the test system is Phosphatidylinositol 4,5-bisphosphate 3-kinase catalytic subunit alpha isoform (Homo sapiens), P42336 [E545K]. Description: Inhibition of PIK3CA E545K mutant (unknown origin) assessed as remaining activity at 15 uM incubated for 1 hr by KINOMEscan competitive binding assay relative to control.
The subject of assay [5] is Phosphatidylinositol 4,5-bisphosphate 3-kinase catalytic subunit alpha isoform (Homo sapiens), P42336 [I800L]. Description: Inhibition of PIK3CA I800L mutant (unknown origin) assessed as remaining activity at 15 uM incubated for 1 hr by KINOMEscan competitive binding assay relative to control.
For assay [6], the system named is Phosphatidylinositol 4,5-bisphosphate 3-kinase catalytic subunit alpha isoform (Homo sapiens), P42336 [M1043I]. Description: Inhibition of PIK3CA M1043I mutant (unknown origin) assessed as remaining activity at 15 uM incubated for 1 hr by KINOMEscan competitive binding assay relative to control.
The target of assay [7] is Serine/threonine-protein kinase 38-like (Homo sapiens) (UniProt Q9Y2H1). Briefly: Binding affinity to STK38L in human SKNBE2 cells assessed as effect on thermal stability at 49 degC incubated for 3 hrs by CETSA assay. It counts as cell-based.

Calls of active or inactive are those of the source. No cut-off for these calls is given here.

Turning to `CC(C)CC(=O)Oc1ccc2occ(-c3ccc(O)c(O)c3)c(=O)c2c1`, the Activity in assay [1] is 52%; in assay [2] it was 57%; in assay [3], 93%; in assay [4], 66%; in assay [5], 98%; in assay [6], 85%.
For `CC(C)CCOc1ccc2c(=O)c(-c3ccc(O)c(O)c3)coc2c1`, the Activity worked out at 100% in assay [1]; 75% in assay [2]; 98% in assay [3]; 79% in assay [4]; 91% in assay [5]; 77% in assay [6]. Besides, in assay [7], the outcome was inactive.
On to `CC(C)=CCc1c2c(c3occ(-c4ccc(O)c(O)c4)c(=O)c3c1O)C=CC(C)(C)O2`, for which, in assay [7], the outcome was inactive.
